In publication PMC4506051, “Pharmacokinetic Profiles of Active Ingredients and Its Metabolites Derived from Rikkunshito, a Ghrelin Enhancer, in Healthy Japanese Volunteers: A Cross-Over, Randomized Study” (PLoS ONE, 2015):
Values belong to the compound of their own block, whether it stands above or below them.

Tests used:
[1] = Exploratory trial: plasma concentration of rikkunshito ingredients after single oral rikkunshito 7.5 g; assay type: in vivo
Protocol: A random sequence was generated using a computer. The safety endpoint was evaluated in all volunteers.
(§1) In the first exploratory trial, 20-mL blood samples were collected from the cutaneous vein in the subjects’ forearm via a blood sampling tube that contained heparin at 0 (preadministration), 0.5, 1, 2, 4, and 8 h after a single oral administration of rikkunshito (Lot E24652). The dose of rikkunshito used in this trial was 7.5 g/day, which is the clinical daily dose, to widely explore rikkunshito-derived ingredients that enter the blood. Along with plasma, urine samples were collected at three points: between dinner and bedtime (preadministration), between 0 and 4 h after administration, and between 4 and 8 h after administration. The blood was immediately centrifuged at 1700 ×g for 10 min to obtain plasma. Plasma and urine fractions were stored at −80°C or lower until analysis.
(§2) For quantification of synephrine, 5 µL of standard solution or methanol was added to 100 µL plasma or urine samples followed by mixing. Ten microliters of erythromycin [internal standard (IS)] solution was added to the solutions followed by mixing and centrifugation (20,400 ×g, 5 min, 4°C). The supernatants were loaded onto an Ostro 96-well plate (Waters) and centrifuged (1500 ×g, 3 min, 4°C) followed by injection into the LC–MS/MS.
(§3) For quantification of 30 ingredients other than atractylodin and synephrine, 25 µL of standard solution or methanol was added to 500 µL plasma or urine samples followed by mixing. Atractylenolide III or digoxin (IS) solution (50 μL) was added to the solutions followed by mixing. For urine, 400 µL of blank plasma was added to the solutions. Ammonium acetate solution (100 mM, 100 or 400 µL) was added to the solutions followed by mixing. For enzymatic treatment, plasma and urine samples were incubated with β-glucuronidase (100 units in 100 mM ammonium acetate) for 2 h at 37°C. A solid-phase cartridge (OASIS HLB, 30 mg/1cc, Waters) was conditioned with methanol and 10 mM ammonium acetate solution, and the samples were loaded onto the cartridge. The cartridge was washed water : methanol (9:1, v/v), and 1.5 mL of methanol and 30 µL of propylene glycol were added to the cartridge to elute the analytes. The mixtures were dried at 25°C under a stream of nitrogen gas. Furthermore, 100 μL of 10 mM ammonium acetate : methanol (8:2, v/v) was added to the dried samples followed by mixing and sonication. The solutions were filtered (0.22 µm) and followed by injection into the LC–MS/MS system. […] Those analytical conditions are summarized in S2 Table and S3 Table.

[2] = Exploratory trial: ingredients in β-glucuronidase (enzyme)-treated plasma; assay type: in vivo, human; settings: β-glucuronidase-treated, rikkunshito 7.5 g, mean ± S.D., n = 4
Protocol: as §1, §3

[3] = Exploratory trial: amount of rikkunshito ingredients in urine; assay type: in vivo, human; settings: mean ± S.D., n = 4; for Amount in urine, 0–4 h: 0–4 h after single oral rikkunshito 7.5 g; for Amount in urine, 4–8 h: 4–8 h after single oral rikkunshito 7.5 g; for Amount in urine, Pre: preadministration (between dinner and bedtime)
Protocol: as §1, §2, §3

[4] = Exploratory trial: ingredients in β-glucuronidase (enzyme)-treated urine; assay type: in vivo, human; settings: β-glucuronidase-treated, mean ± S.D., n = 4
Protocol: as §1, §3

[5] = Stability of ingredients in gastric pH solution (pH 1.2, 37°C); assay type: physicochemical; settings: pH 1.2
Protocol: Rikkunshito gradually dissolved in acidic solution (pH 1.2) at 37°C, and the concentration of atractylodin after adding 0.25, 0.5, 1, and 2 h was measured by gas chromatography–mass spectrometry.

[6] = clinical; settings: human, in vivo, po, Median t max (range)
From the text: The first trial was a nonrandomized, open-label, one-period design. The second trial was a randomized, open-label, three-arm, three-period design (Fig 1). With respect to inclusion criteria, the studies included healthy Japanese adults between 20 and 45 years of age with a body mass index between 18 and 25 who were willing and able to comply with the study requirements. Exclusion criteria for this study included a history of significant liver, heart, or vessel disease and consumption of supplements that contained any rikkunshito ingredients or any drug within 3 days to 1 week before the first dose. Other standard exclusion criteria included relevant allergies, pregnant or nursing females, and any alcohol or nicotine use. The sample size was set as more than 15 based on the Ministry of Health, Labour and Welfare’s guidelines. Subjects allocated to a screening test were randomized to one of three groups by the central allocation system (allocation ratio 1:1:1). A random sequence was generated using a computer. The safety endpoint was evaluated in all volunteers. This endpoint was defined on the basis of a physician’s judgement after examination or observation that a serious adverse event had occurred. Adverse events included death, a life-threatening event, an event requiring hospitalization for treatment or an extended stay in hospital, an event resulting in permanent or temporary disability or dysfunction, an event resulting in a congenital abnormality, or any other serious medical phenomenon. With respect to side effects, no specific conditions were defined, and all adverse events for which no causal relationship with the drug could be excluded were deemed to be side effects. In each stage during the 48-h period following rikkunshito administration, the physician monitored the patient for subjective symptoms, objective findings, swelling, body temperature (axillary), blood pressure (sitting), and pulse (sitting). The physician also conducted a hematological examination to measure the patient’s red blood cell, leucocyte and platelet counts, hemoglobin level, and hematocrit value. A biochemical examination was conducted to determine total protein, blood urea nitrogen, creatinine, uric acid, aspartate aminotransferase, alanine aminotransferase, total bilirubin, alkaline phosphatase, γ-glutamyltranspeptidase albumin, prothrombin time, total cholesterol, C-reactive protein, and potassium to identify any abnormalities in comparison with the subject’s condition prior to administration. All participants fasted for 12 h before administration and 4 h after administration of the study drug.
In the second quantitative trial, 12-mL blood samples were collected at 0 (preadministration), 0.25, 0.5, 1, 2, 3, 4, 6, 8, 10, 12, 24, and 48 h after a single oral administration of rikkunshito (Lot H05142). A total of 3 daily doses were used in this trial, i.e., the clinical dose per administration (2.5 g) as the lowest dose, the clinical daily dose (7.5 g) as the highest dose, and an intermediate dose (5.0 g), to broadly discuss the pharmacokinetic characteristics of the ingredients measured. The trial participants were hospitalized overnight on the day they ingested rikkunshito, and returned home the following day after blood samples were collected at the 24-h time point. The participants returned to the hospital to provide blood samples at 48 h. The blood was immediately centrifuged at 1700 ×g for 15 min to obtain plasma. Plasma fractions were stored at −20°C or lower until analysis.
Plasma, urine, and rikkunshito formulation samples were analyzed for rikkunshito ingredients concentrations using a liquid chromatography–mass spectrometry with tandem mass spectrometer assay (LC–MS/MS; API5000, Triple Quad 6500, or QTRAP5500; AB Sciex, Tokyo, Japan) or gas chromatography–mass spectrometry. Further information of analytical methods can be found at S1 Appendix.

[7] = Method validation: stability in blood; settings: 4 pg/mL
[8] = Method validation: long-term stability in plasma; settings: 160 pg/mL
[9] = Method validation: freeze-thaw stability in plasma; settings: 160 pg/mL, deep freezer (−30°C to −10°C), after 3 cycles of freeze-thaw
[10] = Method validation: post-preparative stability (autosampler)
[11] = Method validation: stability in standard, stock and working solution; settings: 0.1 mg/mL
[12] = of the ingredient in the formulation; summary table, reference not given; cited from earlier work
[13] = Formation of ingredients derived from rikkunshito in formulation, blood, and urine (S11 Table summary); settings: after rikkunshito administration, per ingredient in the formulation; for Formation of ingredients: form found in Urine: BQL = below the quantification limit

Plasma concentration, 0 h ([1]; 0 h (preadministration), single oral rikkunshito 7.5 g, mean ± S.D., n = 4): BQL
Plasma concentration, 4 h ([1]; 4 h after single oral rikkunshito 7.5 g, mean ± S.D., n = 4): BQL
Plasma concentration, 8 h ([1]; 8 h after single oral rikkunshito 7.5 g, mean ± S.D., n = 4): BQL
Plasma concentration of unchanged form before enzyme treatment ([1]; detected in only one subject, at any time point): approximately 30 pg/ml
concentration at 0.5 h ([1]; human, plasma, 0.5 h after single oral rikkunshito 7.5 g, mean ± S.D., n = 4, read-out: Plasma concentration, 0.5 h): 0.00923 ± 0.0185 ng/mL
concentration at 1 h ([1]; human, plasma, 1 h after single oral rikkunshito 7.5 g, mean ± S.D., n = 4): 0.00715 ± 0.0143 ng/mL
concentration at 2 h ([1]; human, plasma, 2 h after single oral rikkunshito 7.5 g, mean ± S.D., n = 4, read-out: Plasma concentration, 2 h): 0.00693 ± 0.0139 ng/mL
concentration at 0.5 h ([2]; human, plasma, oral, 0.5 h): 2.34 ng/mL
concentration at 1 h ([2]; human, plasma, oral, 1 h): 0.987 ± 0.36 ng/mL
concentration at 2 h ([2]; human, plasma, oral, 2 h, read-out: Plasma concentration in enzyme-treated plasma, 2 h): 0.328 ± 0.183 ng/mL
concentration at 4 h ([2]; human, plasma, oral, 4 h, read-out: Plasma concentration in enzyme-treated plasma, 4 h): 0.371 ± 0.113 ng/mL
concentration at 8 h ([2]; human, plasma, oral, 8 h, read-out: Plasma concentration in enzyme-treated plasma, 8 h): 0.222 ± 0.134 ng/mL
Plasma concentration in enzyme-treated plasma, 0 h ([2]; 0 h (preadministration)): BQL
Plasma concentration in enzyme-treated plasma, 0.5 h ([2]; 0.5 h): 2.34 ± 0.848 ng/mL
Amount in urine, 0–4 h [3]: 2300 ± 1150 ng
Amount in urine, 4–8 h [3]: 1600 ± 886 ng
Amount in urine, Pre [3]: 4.61 ± 4.20 ng
Amount in enzyme-treated urine, 0–4 h ([4]; 0–4 h after rikkunshito 7.5 g): 7010 ± 2840 ng
Amount in enzyme-treated urine, 4–8 h ([4]; 4–8 h after rikkunshito 7.5 g): 3260 ± 1580 ng
Amount in enzyme-treated urine, Pre ([4]; preadministration): 22.8 ± 19.7 ng
Stability in gastric pH solution, Quantitative value ([5]; 0.5 h): 5.58 ng/mL
Stability in gastric pH solution, Quantitative value ([5]; 1 h): 7.09 ng/mL
Stability in gastric pH solution, Quantitative value ([5]; 2 h): 5.09 ng/mL
Compound: COc1c(CC=C(C)C)c(O)cc2oc(=O)c(-c3ccc(O)cc3O)cc12 [Glycycoumarin]

Tmax [6]: > 3 h
Stability in blood, RR ([7]; at room temperature for 2 h): 82.0%
Stability in blood, RR ([7]; on ice for 2 h): 91.6%
Long-term stability, RR ([8]; freezer (−30°C to −10°C) for 22 days): 92.5%
Long-term stability, RR ([8]; freezer (−30°C to −10°C) for 31 days): 87.4%
Long-term stability, RR ([8]; freezer (−30°C to −10°C) for 220 days): 87.9%
Freeze-thaw stability, RR [9]: 92.5%
Post-preparative stability, RR ([10]; 4 pg/mL, autosampler set at 4°C for 25 h): 89.2%
Post-preparative stability, RR ([10]; 4 pg/mL, autosampler set at 4°C for 48 h): 94.1%
Post-preparative stability, RR ([10]; 160 pg/mL, autosampler set at 4°C for 25 h): 99.3%
Post-preparative stability, RR ([10]; 160 pg/mL, autosampler set at 4°C for 48 h): 103.4%
Stock solution stability, RR ([11]; refrigerator (1°C to 8°C) for 54 days): 54 days: 99.6%
Stock solution stability, RR ([11]; refrigerator (1°C to 8°C) for 129 days): 129 days: 103.5%
Compound: O=C1C[C@@H](c2ccc(O)cc2)Oc2cc(O)ccc21 [Liquiritigenin]

Compound: C[C@@H]1O[C@@H](OC[C@H]2O[C@@H](Oc3cc(O)c4c(c3)O[C@H](c3ccc(O)cc3)CC4=O)[C@H](O)[C@@H](O)[C@@H]2O)[C@H](O)[C@H](O)[C@H]1O [Narirutin]
Amount in urine, 0–4 h [3]: BQL
Amount in urine, 4–8 h [3]: BQL
Amount in urine, Pre [3]: 9.26 ± 18.5 ng
Stability in gastric pH solution, Quantitative value ([5]; 0.5 h): 1630 ng/mL
Stability in gastric pH solution, Quantitative value ([5]; 1 h): 1700 ng/mL
Stability in gastric pH solution, Quantitative value ([5]; 2 h): 1690 ng/mL
Metabolite by enterobacterium [12]: Naringenin
Formation of ingredients: form found in Blood [13]: Naringenin Conjugate metabolites of naringenin^a
Formation of ingredients: form found in Urine [13]: Naringenin

Compound: CC1(C)[C@@H](O[C@H]2O[C@H](C(=O)O)[C@@H](O)[C@H](O)[C@H]2O[C@@H]2O[C@H](C(=O)O)[C@@H](O)[C@H](O)[C@H]2O)CC[C@]2(C)[C@H]3C(=O)C=C4[C@@H]5C[C@@](C)(C(=O)O)CC[C@]5(C)CC[C@@]4(C)[C@]3(C)CC[C@@H]12 [glycyrrhizic acid]
Formation of ingredients: form found in Blood [13]: 18β-Glycyrrhetinic acid Glycyrrhetinic acid 3-O-glucuronide
Formation of ingredients: form found in Urine [13]: 18β-Glycyrrhetinic acid Glycyrrhetinic acid 3-O-glucuronide

Compound: O=C(/C=C/c1ccc(O[C@@H]2O[C@H](CO)[C@@H](O)[C@H](O)[C@H]2O)cc1)c1ccc(O)cc1O [isoliquiritin]
Metabolite by enterobacterium [12]: Isoliquiritigenin
Formation of ingredients: form found in Blood [13]: Isoliquiritigenin Conjugate metabolites of isoliquiritigenin
Formation of ingredients: form found in Urine [13]: Isoliquiritigenin Conjugate metabolites of isoliquiritigenin
